This note sets out measurements from ChEMBL document CHEMBL4818987, “Recent advances of podophyllotoxin/epipodophyllotoxin hybrids in anticancer activity, mode of action, and structure-activity relationship: An update (2010-2020)” (Eur J Med Chem, 2020).

Data set [1] relates to HeLa. Description: Antiproliferative activity against human HeLa cells incubated for 48 hrs by MTT assay. In kind it is functional, cell-based.
Data set [2] has as its system A549. Briefly: Antiproliferative activity against human A549 cells incubated for 48 hrs by MTT assay. Particulars: A549, 48 h. In kind it is functional, cell-based. On the technique in general: Tetrazolium dyes change colour on reduction, which living cells bring about.
Data set [3] has as its system MCF7. Briefly: Antiproliferative activity against human MCF7 cells incubated for 48 hrs by MTT assay. Particulars: MCF7, 48 h. In kind it is functional, cell-based.
For a further data set, the system named is BGC-823. Briefly: Antiproliferative activity against human BGC-823 cells incubated for 48 hrs by MTT assay. Particulars: BGC-823, 48 h. It counts as functional, cell-based.
For a further data set, the system named is Huh-7. Description: Antiproliferative activity against human Huh7 cells incubated for 48 hrs by MTT assay. It counts as functional, cell-based. Particulars: Huh-7, 48 h.
Data set [4] concerns HepG2. Description: Antiproliferative activity against human HepG2 cells incubated for 48 hrs by MTT assay. In kind it is functional, cell-based. Particulars: HepG2, 48 h.
The test system of data set [5] is L02. Briefly: Cytotoxicity against human HL7702 cells incubated for 48 hrs by MTT assay. Particulars: L02, 48 h. In kind it is cell-based.
The test system of data set [6] is K562. Briefly: Cytotoxicity against human K562 cells incubated for 72 hrs by CCK8 assay. In kind it is functional, cell-based. Particulars: K562, 72 h.
The subject of the next data set is K562/VCR. Briefly: Cytotoxicity against human K562/VCR cells incubated for 72 hrs by CCK8 assay. It counts as functional, cell-based.
The test system of data set [7] is A549. Description: Antiproliferative activity against human A549 cells incubated for 24 hrs by MTT assay. In kind it is functional, cell-based. Particulars: A549, 24 h.
The subject of data set [8] is HeLa. Briefly: Antiproliferative activity against human HeLa cells incubated for 24 hrs by MTT assay. In kind it is functional, cell-based.
A short description of data set [9]: Selectivity ratio of IC50 for human L02 cells to IC50 for human Calu-1 cells. In kind it is toxicity. Particulars: L02 cells / Calu-1 cells, read-out: Ratio IC50.
Data set [10] is described as follows: Selectivity ratio of IC50 for human L02 cells to IC50 for human HeLa cells. It counts as toxicity. Particulars: read-out: Ratio IC50.
Data set [11] can be described thus: Selectivity ratio of IC50 for African green monkey Vero cells to IC50 for human A549 cells. In kind it is toxicity. Particulars: read-out: Ratio IC50.
A short description of data set [12]: Selectivity ratio of IC50 for African green monkey Vero cells to IC50 for human Calu-1 cells. In kind it is toxicity. Particulars: Vero cells / Calu-1 cells, read-out: Ratio IC50.
The test system of another data set is Calu-1. Description: Antiproliferative activity against human Calu-1 cells incubated for 24 hrs by MTT assay. It counts as functional, cell-based. Particulars: Calu-1, 24 h.
The nature of data set [13]: Selectivity ratio of IC50 for African green monkey Vero cells to IC50 for human HeLa cells. In kind it is toxicity. Particulars: read-out: Ratio IC50.
For a further data set, the system named is Vero. Briefly: Cytotoxicity against African green monkey Vero cells. Particulars: Chlorocebus sabaeus. It counts as cell-based.
In data set [14] the test system is L02. Briefly: Cytotoxicity against human L02 cells. In kind it is cell-based.
Data set [15] is described as follows: Selectivity ratio of IC50 for human L02 cells to IC50 for human A549 cells. Particulars: read-out: Ratio IC50. It counts as toxicity.
Data set [16] deals with K562. Description: Antiproliferative activity against human K562 cells incubated for 72 hrs by CCK8 assay. In kind it is functional, cell-based. Particulars: K562, 72 h.
The subject of data set [17] is K562/Adr. Briefly: Potency index, ratio of etoposide IC50 to test compound IC50 for antiproliferative activity against human K562/ADM cells. In kind it is functional.
Data set [18] concerns K562. Description: Potency index, ratio of etoposide IC50 to test compound IC50 for antiproliferative activity against human K562 cells. It counts as functional.
Data set [19] deals with K562/Adr. Description: Antiproliferative activity against human K562/ADR cells incubated for 72 hrs by CCK8 assay. It counts as functional, cell-based.
Data set [20] relates to MCF7. Briefly: Antiproliferative activity against human MCF7 cells incubated for 72 hrs by MTT assay. Particulars: MCF7, 72 h. In kind it is functional, cell-based.
Data set [21] relates to A549. Briefly: Antiproliferative activity against human A549 cells incubated for 72 hrs by MTT assay. In kind it is functional, cell-based. Particulars: A549, 72 h.
Another data set has as its system SK-OV-3. Briefly: Antiproliferative activity against human SK-OV-3 cells incubated for 72 hrs by MTT assay. It counts as functional, cell-based. Particulars: SK-OV-3, 72 h.
Data set [22] deals with HepG2. Description: Antiproliferative activity against human HepG2 cells incubated for 72 hrs by MTT assay. In kind it is functional, cell-based. Particulars: HepG2, 72 h.
The test system of data set [23] is HeLa. Description: Antiproliferative activity against human HeLa cells incubated for 72 hrs by MTT assay. In kind it is functional, cell-based.
For a further data set, the system named is CT26. Description: Antiproliferative activity against […] cells incubated for 72 hrs by MTT assay. It counts as functional, cell-based. Particulars: Mus musculus, CT26, 72 h.
The subject of a further data set is B16-F10. Description: Antiproliferative activity against mouse B16/F10 cells incubated for 72 hrs by MTT assay. It counts as functional, cell-based. Particulars: B16-F10, 72 h.
The test system of data set [24] is MCF7. Description: Antiproliferative activity against human MCF7 cells incubated for 24 hrs by MTT assay. In kind it is functional, cell-based. Particulars: MCF7, 24 h.
For data set [25], the system named is HepG2. Briefly: Antiproliferative activity against human HepG2 cells incubated for 24 hrs by MTT assay. In kind it is functional, cell-based. Particulars: HepG2, 24 h.

Take `COc1cc([C@@H]2c3cc4c(cc3[C@@H](Nc3ncccc3C)[C@H]3COC(=O)[C@H]23)OCO4)cc(OC)c1OC`: the IC50 in the data set with HeLa [1], in the data set on A549 [2], in the data set with MCF7 [3], in the data set on BGC-823 and in the data set on Huh-7 was 60 nM each time.

`COc1cc([C@@H]2c3cc4c(cc3[C@@H](Sc3ncnc5nc[nH]c35)[C@H]3COC(=O)[C@H]23)OCO4)cc(OC)c1OC`: the IC50 with A549 [2], with HepG2 [4], in the data set with BGC-823 and in the data set on L02 [5] was 300 nM in each case.

With `COc1cc([C@@H]2c3cc4c(cc3[C@H](OC(=O)c3ccc5cc[nH]c5c3)[C@H]3COC(=O)[C@H]23)OCO4)cc(OC)c1OC`, the IC50 with K562 [6] and with K562/VCR was 81 nM throughout.

As to `COc1cc([C@@H]2c3cc4c(cc3[C@H](OC(=O)CCCCC3CCSC(c5cccc(C(F)(F)F)c5)S3)[C@H]3COC(=O)[C@H]23)OCO4)cc(OC)c1OC` (some centres undefined), the IC50 (in general, the point on the concentration scale where inhibition reaches its midpoint) was 2680 nM with A549 [7]; 2680 nM in the data set on HeLa [8]; 2680 nM in the data set on Calu-1; over 93800 nM in the data set on Vero; over 93800 nM in the data set on L02 [14]. In addition, the selectivity ratio in [9], in data set [10], in data set [11], in data set [12], in [13] and in [15] was at least 9.7 throughout.

On to `COc1cc([C@@H]2c3cc4c(cc3[C@H](OCC(=O)N3C(=O)C(=O)c5ccc(Cl)cc53)[C@H]3COC(=O)[C@H]23)OCO4)cc(OC)c1OC`, for which the 50% inhibitory concentration (IC50) with K562 [16] and in the data set on K562/Adr [19] was 19 nM throughout. The “Ratio IC50” value in the data set on K562/Adr [17] and in the data set with K562 [18] was 8.8 each time.

With `COc1cc([C@@H]2c3cc4c(cc3[C@H](OC(=O)Cc3c[nH]c5ccccc35)[C@H]3COC(=O)[C@H]23)OCO4)cc(OC)c1OC`, the values for the IC50 in the data set on K562 [6] and with K562/VCR were 43 nM and 202 nM, respectively.

In the case of `COc1cc([C@@H]2c3cc4c(cc3[C@@H](Nc3ncccc3C)[C@H]3COC(=O)[C@H]23)OCO4)cc(OC)c1O`, the half-inhibitory concentration (IC50) in the data set on HeLa [1], in the data set with A549 [2], with MCF7 [3], in the data set with BGC-823 and with Huh-7 was 60 nM each time.

With `COc1ccc(-c2coc3cc(OCCCC(=O)O[C@@H]4c5cc6c(cc5[C@@H](c5cc(OC)c(OC)c(OC)c5)[C@H]5C(=O)OC[C@@H]54)OCO6)ccc3c2=O)cc1`, the IC50 in the data set with MCF7 [20], in the data set with A549 [21], in the data set with SK-OV-3, in the data set on HepG2 [22], in the data set with HeLa [23] and with CT26 was 213 nM each time. In the data set on B16-F10, this molecule showed an IC50 of 213 nM.

For `COc1ccc(-c2nnc(SCC(=O)O[C@H]3c4cc5c(cc4[C@@H](c4cc(OC)c(OC)c(OC)c4)[C@H]4C(=O)OC[C@@H]43)OCO5)o2)cc1`, the IC50 with A549 [7] stood at 2540 nM; in the data set on MCF7 [24], 2540 nM; in the data set on HepG2 [25], 2540 nM; in the data set with HeLa [8] it was 2540 nM; with L02 [14], 92400 nM.

Turning to `COc1cc([C@@H]2c3cc4c(cc3[C@H](OCC(=O)N3C(=O)C(=O)c5c(Br)cccc53)[C@H]3COC(=O)[C@H]23)OCO4)cc(OC)c1OC`, the IC50 with K562 [16] and with K562/Adr [19] was 19 nM throughout. Further, the “Ratio IC50” value in the data set on K562/Adr [17] and in the data set on K562 [18] was 8.8 in each case.
